Measured values from publication PMC9794608 (Frontiers in Veterinary Science, 2022).
Like-named read-outs stand apart in the source and are kept apart here.

Test: Plasma pharmacokinetics after single and repeat oral dose, LC-MS/MS, non-compartmental analysis
Type: in vivo, Beagle dogs
Settings: for Sapanisertib accumulation with repeat dosing: 0.1 mg/kg p.o. QOD; for Cmax: read-out: CMAX (sapanisertib in plasma)
Description: Laboratory Beagle dogs (Charles River Labs, Mattawan, MI) served as surrogates in testing compounds proposed for application in canine clinical cancer care. The animals were at least six months old and weighed 6.4–8.8 kg at the initiation of study. They had routine veterinary care and had not been used in any previous studies. The study was conducted in AAALAC-accredited animal facilities [Charles River Laboratories, Inc., Mattawan, MI; NIH Office of Laboratory Animal Welfare Assurance approval (https://olaw.nih.gov/assured/app/index.html)], under review, monitoring, and approval of the facility's Institutional Animal Care and Use Committee according to U.S. Public Health Service national guidelines and regulations for the care and use of laboratory animals. The study was not designed to incorporate Good Laboratory Practices (GLP) regulatory criteria. Animals on study were monitored daily or more frequently and body weights were recorded, while periodic specimens were obtained for laboratory analyses. Clinical pathology analyses were included for hematology, serum chemistry, coagulation, urinalysis, and chemical bioanalysis was accomplished for pharmacokinetics (PK) (Table 1, repeat dose study) (Charles River Laboratories, Mattawan, MI).
Six male and six female beagle dogs were enrolled in a parallel, three-arm, fixed, repeat oral-dose study. […] In Group 2, two male (23001, 23002) and two female (23501, 23502) dogs were given sapanisertib alone (0.1 mg/kg) every other day (p.o., QOD). […] All dogs were dosed on study day 1 to obtain single dose PK samples, and then dosed serially days 4–20. Dogs were fasted overnight prior to dosing and fed ad libitum 2 h (hrs) following dose administration.
Plasma samples for PK were collected at pre-dose (-7 days), then beginning day 1 following the initial dose of each study group at 1, 2, 4, 8, 24, 48, and 72 h. On day 6, plasma samples were collected pre-dose, then 1, 2, 4, 8, and 24 h post-dose. On days 10 and 15, a 2-h post-dose sample was collected. On day 20, plasma samples were drawn at pre-dose and 1, 2, 4, 8, 24, 48, and 72 h post-dose. Treatment schedule and clinical pathology specimen sampling intervals are outlined in Table 1.
Each 50 μL aliquot of known concentration standards, quality control sample, or study sample was mixed with 200 μL of working internal standard solution (10 ng/mL in acetonitrile). The samples were vortexed and centrifuged. A 150 μL aliquot of the resulting supernatant was transferred to a clean 96-well plate, evaporated, and reconstituted with 100 μL of water/acetonitrile (40/60, v/v). An aliquot was injected onto an LC-MS/MS XBridge BEH C18 liquid chromatography system (Waters Associates, Framingham, MA) having 50 x 2.1 mm (2.5 μm particle size) column with an isocratic flow consisting of water/formic acid (100/0.1, v/v) and acetonitrile/formic acid (100/0.1, v/v) at a flow rate of 0.3000 mL/min for analysis. The analyte and internal standard were detected using an API 6500+ triple quadrupole LC-MS/MS system (AB Sciex, LLC, Framingham, MA) equipped with an ESI (TurboIonSpray®) ionization source operated in the positive ion mode.
A non-compartmental approach to PK analysis was employed using Phoenix WinNonlin v8.3 (Certara Corp, Cary, NC) that was validated per FDA 21CFR Part 11 regulations. The maximum plasma concentration (CMAX) and the time of maximum plasma concentration (TMAX) were recorded as observed values. […] AUCINF (the AUC from time zero to infinity) was calculated by extrapolation by dividing CLAST (the last measurable drug concentration) by the rate constant of the terminal phase, λZ. This constant was determined from the slope of the terminal phase of the concentration-time curve using uniformly-weighted least-squares as the estimation procedure and acceptance criteria of (i) adjusted r^2 > 0.8, (ii) includes > 3 time points in the terminal phase occurring after the TMAX. […]

[1] = First dose (Day 1), sapanisertib 0.1 mg/kg p.o., mean (%CV), n = 4
[2] = canine sapanisertib only group 0.1 mg/kg versus human cancer patients receiving 4 mg oral sapanisertib

Sapanisertib accumulation with repeat dosing (day 1 to day 20): did not display accumulation
Sapanisertib accumulation with repeat dosing (day 1 to day 20, listed as sapanisertib): not observed to significantly accumulate
AUCINF (sapanisertib in plasma) [1]: 247.5 (41%) hr^*ng/mL
V/F (sapanisertib) [1]: 3.85 (34%) L/kg
V/F (sapanisertib) (Steady-state (Day 20), sapanisertib 0.1 mg/kg p.o. QOD, mean (%CV), n = 4): 3.97 (33%) L/kg
Sapanisertib plasma level at day 15 (approximately 24 h from the previous dose, Groups 2,3): minimal detectable
half-life (both sexes, beagle, dog, plasma, po, 0.1 mg/kg, 0.1 mg/kg p.o., day 1 to day 20, read-out: Sapanisertib half-life (range)): 4.8 to 6.8 h
AUC(0-inf) (both sexes, beagle, dog, plasma, po, 0.1 mg/kg, First dose (Day 1), sapanisertib 0.1 mg/kg p.o., mean (%CV), n = 4, read-out: AUCINF (sapanisertib in plasma)): 248 ng·h/mL
half-life (both sexes, beagle, dog, plasma, po, 0.1 mg/kg, First dose (Day 1), sapanisertib 0.1 mg/kg p.o., mean (%CV), n = 4, read-out: T1/2 (sapanisertib in plasma) (converted)): 5.94 h
Tmax (both sexes, beagle, dog, plasma, po, 0.1 mg/kg, First dose (Day 1), sapanisertib 0.1 mg/kg p.o., median (range), n = 4, read-out: TMAX (sapanisertib in plasma)): 2 h
Cmax (both sexes, beagle, dog, plasma, po, 0.1 mg/kg, Steady-state (Day 6), sapanisertib 0.1 mg/kg p.o. QOD, mean (%CV), n = 4): 28.1 ng/mL
Cmax (both sexes, beagle, dog, plasma, po, 0.1 mg/kg, Steady-state (Day 10), sapanisertib 0.1 mg/kg p.o. QOD, mean (%CV), n = 4): 23.6 ng/mL
AUC (both sexes, beagle, dog, plasma, po, 0.1 mg/kg, Steady-state (Day 20), sapanisertib 0.1 mg/kg p.o. QOD, mean (%CV), n = 4, read-out: AUCTAU (sapanisertib in plasma)): 250 ng·h/mL
Cmax (both sexes, beagle, dog, plasma, po, 0.1 mg/kg, Steady-state (Day 20), sapanisertib 0.1 mg/kg p.o. QOD, mean (%CV), n = 4): 27.4 ng/mL
half-life (both sexes, beagle, dog, plasma, po, 0.1 mg/kg, Steady-state (Day 20), sapanisertib 0.1 mg/kg p.o. QOD, mean (%CV), n = 4, read-out: T1/2 (sapanisertib in plasma) (converted)): 6.28 h
Tmax (both sexes, beagle, dog, plasma, po, 0.1 mg/kg, Steady-state (Day 20), sapanisertib 0.1 mg/kg p.o. QOD, median (range), n = 4, read-out: TMAX (sapanisertib in plasma)): 2 h
Tmax (both sexes, beagle, dog, plasma, po, 0.1 mg/kg, dogs, 0.1 mg/kg p.o., read-out: Sapanisertib Tmax on average): 2 h
CL/F (both sexes, beagle, dog, plasma, po, First dose (Day 1), sapanisertib 0.1 mg/kg p.o., mean (%CV), n = 4): 7.83 mL/min/kg
Cmax (both, beagle, dog, plasma, po, 0.1 mg/kg, First dose (Day 1), sapanisertib 0.1 mg/kg p.o., alone or with trametinib […] (see label), arithmetic mean (%CV), n = 4): 26.3 ng/mL
Mean animal to human exposure ratio, AUCINF [2]: 1.31
Mean animal to human exposure ratio, CMAX [2]: 1.11
Mean animal to human exposure ratio, T1/2 [2]: 0.91
Sapanisertib absorption time (range) (initial and repeat dose, 0.1 mg/kg p.o.): 1 to 4 h
Structure (SMILES): CC(C)n1nc(-c2ccc3oc(N)nc3c2)c2c(N)ncnc21 [Sapanisertib]
